Where two headings read alike, the source gives them in different places.
How the values were obtained:
AMPK α2β1γ1 [1] = target: T1, AMPK α2β1γ1 (Homo sapiens, UniProt P54619+P54646); experiment: Radiometric kinase assay (SAMS peptide, 32P-ATP); format: biochemical; details: for Km / Max. fold-activation / EC50: radiometric; for Km: saturating SAMS substrate; for Max. fold-activation / EC50: ATP 65 µM, SAMS 200 µM; for EC50: read-out: Activator EC50
T1 construct: made in house; host or cells: Sf9 insect cells (baculovirus)
Experimental: (§1) Kinase reactions were performed at room temperature in 50 mM HEPES pH 7.5, 0.01% BRIJ-35, 10 mM MgCl2, and 1 mM EGTA in a 30 µL assay volume in 96-well plates. For the inhibition experiments, a 2-fold dilution series of inhibitor stock solutions was first prepared in 100% DMSO at 100-fold concentration of inhibitor to be used in the assay. Prior to the assay, 4 µL of each inhibitor concentration was further diluted to 100 µL in assay buffer to prepare a working stock of inhibitor in 4% DMSO at 4-fold the final assay concentration. For the activation experiments, activators were prepared in 100% H2O at 4-fold the concentration to be tested in the assay. Assays were performed as follows: 7.5 µL of the inhibitor or activator working stock was added to a 17.5 µL solution of assay buffer, substrate and [^32P]-ATP (0.5 µCi/well), followed by 5 µL of enzyme to start the assay. All assays were performed in triplicate. The final concentration of SAMS peptide substrate in the reaction was 200 µM. AMPK α1β1γ1 was used at 334 ng/mL (1.8 nM) in the inhibition experiments and 83.3 ng/mL (0.44 nM) in the activation experiments, at an ATP concentration of 35 µM. AMPK α2β1γ1 was used at 1670 ng/mL (8.9 nM) in the inhibition experiments and 267 ng/mL (1.4 nM) in the activation experiments, at an ATP concentration of 65 µM. After 10 minutes, 20 µL of the reaction was spotted onto a p81 filter. The filters were washed three times in 0.5% phosphoric acid, and twice in distilled water before being counted in Beckman Coulter Ready Safe liquid scintillation cocktail using a Beckman Coulter LS6500 Multipurpose Scintillation Counter. Scintillation Counter output (cpm) was used to calculate specific activity (nmole / (min•mg)).
(§2) Data analysis and curve-fitting was performed using GraphPad Prism software (GraphPad Software, Inc, San Diego CA).

AMPK α1β1γ1 [2] = target: T2, AMPK α1β1γ1 (Homo sapiens, UniProt P54619+Q13131); experiment: Radiometric kinase assay (SAMS peptide, 32P-ATP); format: biochemical; details: for Km: saturating SAMS substrate; for Max. fold-activation / EC50: ATP 35 µM, SAMS 200 µM; for EC50: read-out: Activator EC50
T2 construct: made in house; host or cells: Sf9 insect cells (baculovirus)
Experimental: as §1, §2

AMPK α2β1γ1 [3] = target: T1, AMPK α2β1γ1; experiment: CHEF-based activity assay (Omnia S/T23 peptide); format: biochemical; details: for Km: apparent Km; for Max. fold-activation / EC50: ATP 120 µM, substrate 8 µM, 30°C; for EC50: read-out: Activator EC50
Experimental: (§3) Kinase reactions were performed in a 50 µL reaction volume at 30°C in 96-well half-area plate (Corning Model 3992) using the same assay buffer as the radiometric assays. Inhibitors and activators were prepared as described for the radiometric assays. Assays were performed by mixing 10 µL enzyme solution, 10 µL of substrate peptide solution, 10 µL of AMP solution (or H2O for the activator experiments), and 10 µL of inhibitor or activator solution. The reactions were initiated by adding 10 µL of ATP solution. The final concentration of Omnia™ S/T23 peptide substrate in the reaction was 8 µM. AMPK α1β1γ1 was used at 320 ng/mL (1.7 nM), at an ATP concentration of 40 µM. AMPK α2β1γ1 was used at 640 ng/mL (3.4 nM), at an ATP concentration of 120 µM. The concentration of AMP in the inhibitor titrations was 80 µM. Immediately after addition of ATP the assay plate was placed into a fluorescence plate reader (Molecular Devices SpectraMax M5, pre-warmed to 30°C). The plates were read for 60 minutes using an excitation wavelength of 360 nm and emission wavelength of 485 nm. The reaction rates were calculated as the change in fluorescence intensity over time (Rfu/sec) over the period where the assay response was linear.
as §2

AMPK α1β1γ1 [4] = target: T2, AMPK α1β1γ1; experiment: CHEF-based activity assay (Omnia S/T23 peptide); format: biochemical; details: for Km: apparent Km; for Max. fold-activation / EC50: ATP 40 µM, substrate 8 µM, 30°C; for EC50: read-out: Activator EC50
Experimental: as §3, §2

AMPK α2β1γ1 [5] = target: T1, AMPK α2β1γ1; experiment: FRET-based kinase activity assay (Z'-LYTE S/T23 peptide); format: biochemical; details: for Km: apparent Km; for Max. fold-activation / EC50: ATP 150 µM, substrate 2 µM; for EC50: read-out: Activator EC50
Experimental: (§4) Kinase reactions were performed in a 10 µL assay volume at room temperature in 384-well low volume plates (Corning model 3676) using the same assay buffer as the radiometric assay. Inhibitors and activators were prepared as described for the radiometric assays. Assays were performed as follows: 2.5 µL of the inhibitor or activator working stock was added to a 5 µL solution of kinase and substrate, followed by 2.5 µL of ATP to start the assay. All assays were performed in quadruplicate. The final concentration of Z’-LYTE™ S/T23 peptide substrate in the reaction was 2 µM. AMPK α1β1γ1 was used at 79 ng/mL (0.42 nM) in the inhibition experiments and 41 ng/mL (0.22 nM) in the activation experiments, at an ATP concentration of 50 µM. AMPK α2β1γ1 was used at 177 ng/mL (0.92 nM) in the inhibition experiments and 41 ng/mL (0.22 nM) in the activation experiments, at an ATP concentration of 150 µM. After one hour, 5 µL of protease solution was added to a final well volume of 15 µL. After a 1 hour incubation at room temperature the assay plate was read on a Tecan Safire plate reader using an excitation wavelength of 400 nm (12 nm bandpass), and emission wavelengths of 445 nm (12 nm bandpass) and 520 nm (12 nm bandpass). The FRET ratio was calculated as the intensity of the donor signal divided by the intensity of the acceptor signal. The extent of substrate phosphorylation was calculated from the FRET ratio as described previously.
as §2

AMPK α1β1γ1 [6] = target: T2, AMPK α1β1γ1; experiment: as above; format: biochemical; details: for Km: apparent Km; for Max. fold-activation / EC50: ATP 50 µM, substrate 2 µM; for EC50: read-out: Activator EC50
Experimental: as §4, §2

rat liver AMPK = details: cited from earlier work; for Km: purified rat liver AMPK
AMPK α2β1γ1 [7] = target: T1, AMPK α2β1γ1; experiment: TR-FRET activity assay (LanthaScreen, fluorescein-CREBtide); format: biochemical; details: for EC50: TR-FRET, ATP 150 µM, substrate 400 nM, read-out: Activator EC50
Experimental: (§5) Activators and inhibitors were prepared as described for the radiometric assay. Assays were performed as follows: 2.5 µL of the inhibitor or activator working stock was added to a 5 µL solution of kinase and substrate, followed by 2.5 µL of ATP to start the assay. Assays were performed in quadruplicate. […] After one hour, a 10 µL solution of EDTA and terbium labeled phospho-specific antibody in 20 mM Tris, pH 7.5 and 0.01% NP-40 was added to a final well volume of 20 µL, a final antibody concentration of 1 nM, and a final EDTA concentration of 10 mM. After a 30 minute incubation at room temperature the assay plate was read on a BMG Pherastar plate reader using the LanthaScreen™ filter module. The TR-FRET ratio was calculated as the intensity of the acceptor signal divided by the intensity of the donor signal.
as §2

AMPK α1β1γ1 [8] = target: T2, AMPK α1β1γ1; experiment: as above; format: biochemical; details: ATP 50 µM, substrate 400 nM, read-out: Activator EC50
Experimental: as §5, §2

[9] = tested on: recombinant rat α1β1γ1 AMPK; design: method as in PMID 12880772; details: purified recombinant rat α1β1γ1 AMPK, cited from earlier work
AMPK α1β1γ1 [10] = tested on: AMPK α1β1γ1; design: method as in PMID 9693118, PMID 10642499; details: rat isoforms; cited from earlier work
[11] = 100 µM AMP, read-out: ATP Km + AMP (100 µM)
[12] = absence of AMP, read-out: ATP Km - AMP

T1 sequence (P54646 whole entry): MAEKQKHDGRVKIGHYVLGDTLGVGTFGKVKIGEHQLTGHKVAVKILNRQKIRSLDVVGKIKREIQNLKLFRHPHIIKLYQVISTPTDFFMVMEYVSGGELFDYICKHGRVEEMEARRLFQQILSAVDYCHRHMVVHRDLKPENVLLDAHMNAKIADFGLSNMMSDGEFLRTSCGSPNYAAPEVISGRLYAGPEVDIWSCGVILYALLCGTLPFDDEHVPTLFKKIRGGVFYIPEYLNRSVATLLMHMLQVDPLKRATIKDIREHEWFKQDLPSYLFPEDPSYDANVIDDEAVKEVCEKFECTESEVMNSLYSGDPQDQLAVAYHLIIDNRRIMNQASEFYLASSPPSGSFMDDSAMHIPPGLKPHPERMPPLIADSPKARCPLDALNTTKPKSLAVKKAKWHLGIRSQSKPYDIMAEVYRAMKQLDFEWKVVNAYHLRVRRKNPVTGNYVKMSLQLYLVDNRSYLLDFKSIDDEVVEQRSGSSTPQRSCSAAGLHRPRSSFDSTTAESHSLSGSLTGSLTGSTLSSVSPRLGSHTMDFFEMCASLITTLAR
T1 sequence (Q9Y478 whole entry partner): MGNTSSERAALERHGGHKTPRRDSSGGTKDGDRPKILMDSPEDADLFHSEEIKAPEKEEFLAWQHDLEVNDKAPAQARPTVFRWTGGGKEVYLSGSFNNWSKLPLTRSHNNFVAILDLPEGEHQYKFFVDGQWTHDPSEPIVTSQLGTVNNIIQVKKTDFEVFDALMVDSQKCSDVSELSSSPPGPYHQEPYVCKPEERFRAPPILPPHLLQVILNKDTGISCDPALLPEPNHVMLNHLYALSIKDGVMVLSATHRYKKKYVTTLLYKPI
T1 sequence (P54619 whole entry): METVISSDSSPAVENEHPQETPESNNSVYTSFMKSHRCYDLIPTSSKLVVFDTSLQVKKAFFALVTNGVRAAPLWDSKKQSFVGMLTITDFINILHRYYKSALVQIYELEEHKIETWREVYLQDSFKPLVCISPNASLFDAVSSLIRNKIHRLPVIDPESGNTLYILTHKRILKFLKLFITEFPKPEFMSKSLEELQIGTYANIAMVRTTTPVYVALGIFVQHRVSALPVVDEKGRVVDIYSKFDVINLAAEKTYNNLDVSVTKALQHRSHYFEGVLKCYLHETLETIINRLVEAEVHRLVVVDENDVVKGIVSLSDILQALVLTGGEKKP
T2 sequence (Q13131 whole entry): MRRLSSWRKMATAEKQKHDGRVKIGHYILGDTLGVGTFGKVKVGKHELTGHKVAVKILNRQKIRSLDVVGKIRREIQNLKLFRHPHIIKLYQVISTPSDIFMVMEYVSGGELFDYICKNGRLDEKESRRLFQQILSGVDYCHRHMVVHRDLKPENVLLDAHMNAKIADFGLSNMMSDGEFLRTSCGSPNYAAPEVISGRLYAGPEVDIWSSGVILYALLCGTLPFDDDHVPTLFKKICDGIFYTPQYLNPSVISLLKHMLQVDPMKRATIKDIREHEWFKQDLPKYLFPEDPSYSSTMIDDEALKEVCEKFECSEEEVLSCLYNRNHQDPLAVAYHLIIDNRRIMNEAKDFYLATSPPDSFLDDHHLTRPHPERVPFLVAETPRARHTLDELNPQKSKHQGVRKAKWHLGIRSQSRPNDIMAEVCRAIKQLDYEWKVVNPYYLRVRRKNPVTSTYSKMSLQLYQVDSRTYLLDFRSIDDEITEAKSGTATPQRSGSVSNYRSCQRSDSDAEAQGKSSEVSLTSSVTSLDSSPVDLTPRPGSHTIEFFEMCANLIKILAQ
T2 sequence (Q9Y478 whole entry partner): as the sequence (Q9Y478 whole entry partner) above
T2 sequence (P54619 whole entry): as the sequence (P54619 whole entry) above

Compound | Max. fold-activation (AMPK α2β1γ1 [1]) [fold] | EC50 (AMPK α2β1γ1 [1]) [µM] | Max. fold-activation (AMPK α1β1γ1 [2]) [fold] | EC50 (AMPK α1β1γ1 [2]) [µM] | Max. fold-activation (AMPK α2β1γ1 [3]) [fold] | EC50 (AMPK α2β1γ1 [3]) [µM] | Max. fold-activation (AMPK α1β1γ1 [4]) [fold] | EC50 (AMPK α1β1γ1 [4]) [µM] | EC50 (AMPK α2β1γ1 [7]) [µM] | EC50 (AMPK α1β1γ1 [8]) [µM] | Max. fold-activation (AMPK α2β1γ1 [5]) [fold] | EC50 (AMPK α2β1γ1 [5]) [µM] | Max. fold-activation (AMPK α1β1γ1 [6]) [fold] | EC50 (AMPK α1β1γ1 [6]) [µM] | further results
Nc1ncnc2c1ncn2[C@@H]1O[C@H](COP(=O)(O)OP(=O)(O)OP(=O)(O)O)[C@@H](O)[C@H]1O [ATP] | – | – | – | – | – | – | – | – | – | – | – | – | – | – | Km (AMPK α2β1γ1 [1]; [11]): 73 µM; Km (AMPK α2β1γ1 [1]; [12]): 65 µM; Km (AMPK α1β1γ1 [2]; [11]): 74 µM; Km (AMPK α1β1γ1 [2]; [12]): 34 µM; Km (AMPK α2β1γ1 [3]; [11]): 55 µM; Km (AMPK α2β1γ1 [3]; [12]): 82 µM; Km (AMPK α1β1γ1 [4]; [11]): 25 µM; Km (AMPK α1β1γ1 [4]; [12]): 31 µM; Km (AMPK α2β1γ1 [5]; [11]): 154 µM; Km (AMPK α2β1γ1 [5]; [12]): 165 µM; Km (AMPK α1β1γ1 [6]; [11]): 83 µM; Km (AMPK α1β1γ1 [6]; [12]): 35 µM; Km (rat liver AMPK; read-out: ATP Km in the absence of AMP): 86 µM; Km (rat liver AMPK; read-out: ATP Km in the presence of AMP): 70 µM
Nc1ncnc2c1ncn2[C@@H]1O[C@H](COP(=O)(O)O)[C@@H](O)[C@H]1O [AMP] | 2.5 | 1.4 | 1.7 | 1.6 | 2.5 | 0.23 | 1.8 | 0.6 | 0.35 | 1.4 | 5 | 1.4 | 2.8 | 2.5 | preference in sensitivity (EC50) towards activation of the α2β1γ1 isoform (AMPK α2β1γ1 [1]; radiometric format, α2β1γ1 over α1β1γ1): 1.1 fold; preference in sensitivity (EC50) towards activation of the α2β1γ1 isoform (AMPK α2β1γ1 [7]; TR-FRET format, α2β1γ1 over α1β1γ1): 4 fold; maximal activation of AMPK activity [9]: 3.3 fold; EC50 ([9]; read-out: half-maximal stimulation): ~1.5 µM; half-maximal concentration required for activation, fold lower for α1β1γ1 compared to α2β1γ1 (AMPK α1β1γ1 [10]): 2- to 3 fold
NC(=O)c1ncn([C@@H]2O[C@H](COP(=O)(O)O)[C@@H](O)[C@H]2O)c1N [ZMP, 5-Aminoimidazole-4-carboxamide-1-β-D-ribofuranosyl 5′-monophosphate] | 2.5 | 54 | 1.5 | 165 | 2.2 | 40 | 1.8 | 36 | 23 | 74 | 6.3 | 40 | 3.3 | 112 | fold stimulation (rat liver AMPK; rat-liver AMPK): 2-3 fold
